B1: full length recombinant FKBP-L: recombinant full length his-tagged FKBP-L protein (SEQ ID NO: 1) expressed in BL21 (DE3) (protein, listed as Homo sapiens)
chain: MRGSHHHHHHGMASMTGGQQMGRDLYDDDDKDRWGSMETPPVNTIGEKDTSQPQQEWEKNLRENLDSVIQIRQQPRDPPTETLELEVSPDPASQILEHTQGAEKLVAELEGDSHKSHGSTSQMPEALQASDLWYCPDGSFVKKIVIRGHGLDKPKLGSCCRVLALGFPFGSGPPEGWTELTMGVGPWREETWGELIEKCLESMCQGEEAELQLPGHTGPPVGLTLASFTQGRDSWELETSEKEALAREERARGTELFRAGNPEGAARCYGRALRLLLTLPPPGPPERTVLHANLAACQLLLGQPQLAAQSCDRVLEREPGHLKALYRRGVAQAALGNLEKATADLKKVLAIDPKNRAAQEELGKVVIQGKNQDAGLAQGLRKMFG
modifications: His tag

How the values were obtained:
[1] = system: PC3 (Prostate; CD44+ve); assay: cell invasion in a modified Boyden chamber system, PC3; format: cell-based; conditions: 24 h
Procedure: Twelve well plate polycarbonate inserts were divided into two groups with half remaining uncoated and half coated with 100 μg/cm^2 of Matrigel. The coated inserts were allowed to dry overnight at room temperature in a sterile tissue culture hood. The required cell line; HMEC-1, PC3 or MDA231 was trypsinised, re-suspended in fresh medium and the cell number calculated. 5×10^5 cells, in a total volume of 500 μl, were added to the insert (top chamber) and 1.5 ml of complete medium added to the bottom chamber of the plate as a stimulus for invasion. FKBP-L 24mer was added to both the upper and lower chamber of the plate at the required concentration in the experimental wells. The plate was incubated for 24 h (PC3 or MDA231) or 48 h (HMEC-1).
The inserts were carefully removed from their 12 well plate and inserts without Matrigel coating were placed directly into Carnoys fixative. […]
The polycarbonate inserts were cut from the holders and placed on to mounting medium on a microscope slide. […] The slides were stored at 4° C. until analysed.
Ten images from each insert were captured and the number of fluorescent cells per image was analysed by Lucia Imaging software. The ratio of cells visible on non-coated inserts compared to cells visible on Matrigel coated inserts was expressed as % invasion. […]

[2] = system: DU145 tumours; assay: prostate cancer xenograft model, daily IP injection; format: in vivo, SCID mice
Procedure: Du145 (prostate carcinoma) cells were obtained from Cancer Research UK and cultured in RPMI 1640 medium (Invitrogen) supplemented with 10% foetal calf serum. All cell lines were grown as monolayers, incubated at 37° C. under 5% CO2.
24 male immunocompromised (severe combined immunodeficient) mice were used (Harlan). The mice were acclimatised and caged in groups of 5 or less in an isolator. Du145 (prostate carcinoma) cells were cultured as previously described. Sub-confluent cells were harvested and the cell concentration was adjusted to 5×10^7 cells/ml in PBS. The dorsum of each mouse was shaved. After administrating aesthetic, each mouse received intra-dermal injections of 5×10^6 Du145 tumour cells (100 μl) bilaterally into the rear dorsum with a 26-gauge needle. The tumours were allowed to grow until they reached a volume of 150-175 mm^3. The mice were randomly divided into four treatment groups: (a) Control: PBS only (8 mice); (b) 24mer FKBPL peptide: 0.3 mg/kg/day (6 mice); (c) 24mer FKBPL peptide: 3×10^−3 mg/kg/day (6 mice); and (d) 24mer FKBPL peptide: 3×10^−4 mg/kg/day (5 mice).
The mice received daily IP injections (100 μl) of the above treatments. The weight and the tumour volume of each mouse were recorded every 2 days. Tumour volume was calculated as: Length×Breadth×Height×0.5236. Twenty-one days after initial treatment the following animals were sacrificed: 0.3 mg/kg/day 24mer FKBPL (2 mice), 3×10^−3 mg/kg/day (2 mice), 3×10^−4 mg/kg/day (1 mouse) and PBS (2 mice). The tumours were excised and stored in saline formalin solution for future histopathological analysis.

[3] = system: migrating HMEC-1; assay: immunohistochemical analysis of cytoskeletal morphology (anti-tubulin, anti-vimentin, confocal microscopy); format: cell-based, Human; conditions: 750 ngml^−1; 5 hours after wounding
Procedure: Immunohistochemical analysis was carried out to assess cytoskeletal morphology upon treatment with FKBP-L by staining for tubulin and vimentin. HMEC-1 were seeded in four well chamber slides and incubtated overnight until confluent monolayers had formed. Media was removed from each well and the monolayer wounded as previously described. The cells were re-supplemented with medium containing 750 ngml^−1 recombinant His-tagged FKBP-L protein (i.e., SEQ ID NO: 1). The cells were incubated for 5 hours and the chambers were removed from the slides and the cells washed four times in PBS followed by fixation in 4% PBS buffered paraformaldehyde treated with 0.1% Triton X for 20 minutes. The cells were washed three times in PBS, and blocked for 20 minutes in 2% BSA containing 0.1% Triton X. Blocked cells were washed in PBS and incubated with one of the following monoclonal primary antibodies: (A) anti α tubulin (1:500); and (B) anti-vimentin (1:200), for 90 minutes. The cells were washed in PBS followed by a 1 hour incubation with FITC conjugated anti-mouse secondary (1:30) at room temperature. The cells were mounted with Vectashield containing propidium iodide and sealed to prevent dehydration. The slides were covered in tinfoil and stored at 4° C. for analysis using fluorescence confocal microscopy.

[4] = system: MCF-7 (breast tumor cell line; CD44 −ve); assay: tumor cell migration, wound closure assay, MCF-7; format: cell-based; conditions: MCF-7 (CD44 −ve); 24 h
Procedure: The in vitro migration assay used in these studies is a modified version of the method described by Ashton et al. (1999) see supra. PC3 (prostate tumor cell line; CD44 positive; CD44 +ve), MDA231 (breast tumor cell line; CD44 +ve), HT29 (Colorectal tumor cell line; CD44 +ve), MCF-7 (breast tumor cell line; CD44 negative; CD44 −ve) and DU145 (prostate tumor cell line; CD44 −ve) were plated into individual chambers on a glass slide and grown to 90% confluence overnight. The medium was removed and the monolayers wounded. […] The monolayers were incubated for 24 h and then fixed in 4% PBS buffered paraformaldehyde.
The extent of “wound” closure was blindly assessed microscopically by an independent investigator and quantified using a calibrated eyepiece graticule (1 mm/100 μm graduation) at 20× magnification (Olympus BX 50). The extent of closure in the FKBP-L treated slides was compared to time matched sham treated controls and the % inhibition of wound closure compared to time matched controls calculated.

[5] = system: HMEC-1 cells
Procedure: An MTT assay was used to measure cell viability/proliferation.
An MTT assay was used to measure cell viability and/or proliferation. Briefly, HMEC-1 cells were seeded (2.5×10^3) in 96 well plates and allowed to attach for 5 h. The cells were treated with FKBP-L 24mer (SEQ ID NO: 10) (10^−5-10^−10M), 1-57mer (SEQ ID NO: 6) (10^−9M and 10^−10M) or medium (control).
Post incubation the cells were exposed to a 5 mgml^−1 solution of 3-(-4,5-dimethylthiazol-2-yl) 2,5 diphenyl tetrazolium (MTT) for 4 h. The cells were aspirated and 200 μl of DMSO added to reduce the salt and induce a colour change.

| Molecule | effect on cell invasion through Matrigel [1] | tumors compared with controls (Kaplan-Meier, time to 3× treatment volume) ([2]; 0.0003 mg/kg/day, daily IP) | time for tumours to reach 3× their treatment volume (Kaplan-Meier survival) ([2]; 0.003 mg/kg/day, daily IP) | time for tumours to reach 3× their treatment volume (Kaplan-Meier survival) ([2]; 0.3 mg/kg/day, daily IP) | tumours that failed to reach their volume tripling within the duration of the experiment (all but the stated number) ([2]; 0.3 mg/kg/day, daily IP) | growth of DU145 tumours compared to vehicle only treated tumours ([2]; 0.3 mg/kg/day, daily i.p.) | growth of DU145 tumours compared to vehicle only treated tumours ([2]; 3×10^−3 mg/kg/day, daily i.p.) | body weight after daily treatment (tolerability) ([2]; daily IP injection) | tumour appearance ([2]; most effective doses, daily i.p., a number of tumours) | intermediate filament morphology (anti-vimentin staining) [3] | microtubule morphology (anti α tubulin staining) [3] | effect on tumor cell migration [4] | effect on proliferation of HMEC-1 cells compared to time matched controls [5] |
| --- | --- | --- | --- | --- | --- | --- | --- | --- | --- | --- | --- | --- | --- |
| H-QIRQQPRDPPTETLELEVSPDPAS-OH [FKBP-L 24mer] | potent inhibitor | not significantly different from controls | significantly later than controls | significantly later than controls | All but two tumours (of 6) | significantly slowed the growth | significantly slowed the growth | None of the animals lost weight | evidence of a necrotic centre | – | – | – | – |
| B1 | – | – | – | – | – | – | – | – | – | highly disorganized | little alignment into the wound | not in CD44 −ve tumor cell lines | no significant effect |

From patent publication US10577406B2, “FKBP-L polypeptides and uses in angiogenesis-mediated disorders” (ALMAC DISCOVERY LIMITED, priority 2006, dated 2020)
